Test results reported in the supplement of paper PMC13380429.

What was measured:
Conditions in all cases: 72 h
Caco-2 [1] = assay: cell viability relative to DMSO; higher = less toxic
HepG2 [2] = assay: as above
U2OS [3] = assay: as above
Vero E6 [4] = assay: as above
HepG2 [5] = assay: relative viability EC50 (midpoint between 100% and the lowest measured viability); higher = less toxic
U2OS [6] = assay: as above
Vero E6 [7] = assay: as above
Caco-2 [8] = assay: drug sensitivity score (DSS) for viability; higher = more toxic; extreme values may be limits of the assay
HepG2 [9] = assay: as above
U2OS [10] = assay: as above
Vero E6 [11] = assay: as above
Calu-3 [12] = assay: cell viability relative to DMSO; higher = less toxic
Calu-3 [13] = assay: relative viability EC50 (midpoint between 100% and the lowest measured viability); higher = less toxic
Calu-3 [14] = assay: drug sensitivity score (DSS) for viability; higher = more toxic; extreme values may be limits of the assay
Caco-2 [15] = assay: relative viability EC50 (midpoint between 100% and the lowest measured viability); higher = less toxic

| SMILES | cell viability (Caco-2 [1]; 1 nM) [%] | cell viability (Caco-2 [1]; 10 nM) [%] | cell viability (Caco-2 [1]; 100 nM) [%] | cell viability (Caco-2 [1]; 1000 nM) [%] | cell viability (Caco-2 [1]; 10000 nM) [%] | cell viability (HepG2 [2]; 1 nM) [%] | cell viability (HepG2 [2]; 10 nM) [%] | cell viability (HepG2 [2]; 100 nM) [%] | cell viability (HepG2 [2]; 1000 nM) [%] | cell viability (HepG2 [2]; 10000 nM) [%] | cell viability (U2OS [3]; 1 nM) [%] | cell viability (U2OS [3]; 10 nM) [%] | cell viability (U2OS [3]; 100 nM) [%] | cell viability (U2OS [3]; 1000 nM) [%] | cell viability (U2OS [3]; 10000 nM) [%] | cell viability (Vero E6 [4]; 1 nM) [%] | cell viability (Vero E6 [4]; 10 nM) [%] | cell viability (Vero E6 [4]; 100 nM) [%] | cell viability (Vero E6 [4]; 1000 nM) [%] | cell viability (Vero E6 [4]; 10000 nM) [%] | relative viability EC50 (HepG2 [5]) [µM] | relative viability EC50 (U2OS [6]) [µM] | relative viability EC50 (Vero E6 [7]) [µM] | drug sensitivity score (Caco-2 [8]) | drug sensitivity score (HepG2 [9]) | drug sensitivity score (U2OS [10]) | drug sensitivity score (Vero E6 [11]) | cell viability (Calu-3 [12]; 1 nM) [%] | cell viability (Calu-3 [12]; 10 nM) [%] | cell viability (Calu-3 [12]; 100 nM) [%] | cell viability (Calu-3 [12]; 1000 nM) [%] | cell viability (Calu-3 [12]; 10000 nM) [%] | relative viability EC50 (Calu-3 [13]) [µM] | drug sensitivity score (Calu-3 [14]) | relative viability EC50 (Caco-2 [15]) [µM] |
| --- | --- | --- | --- | --- | --- | --- | --- | --- | --- | --- | --- | --- | --- | --- | --- | --- | --- | --- | --- | --- | --- | --- | --- | --- | --- | --- | --- | --- | --- | --- | --- | --- | --- | --- | --- |
| CN1C(=O)CC[C@H]1c1cccnc1 [cotinine] | 71.1 | 74.2 | 84.3 | 83 | 106 | 104 | 99.4 | 106 | 105 | 96.2 | 94.7 | 97.2 | 92.9 | 95.7 | 102 | 95.9 | 92.8 | 94 | 95.7 | 106 | > 10 | > 10 | > 10 | 5.4 | 0 | 0 | 0 | – | – | – | – | – | – | – | – |
| CCOc1cc(C(=O)Nc2ccc(Cl)c(-c3nc4ccccc4[nH]3)c2)cc(OCC)c1OCC [SANT-2] | 94.6 | 102 | 89.4 | 91.6 | 57.8 | 102 | 94.4 | 99.6 | 90.9 | 71.5 | 94.2 | 98.8 | 98.3 | 103 | 90 | 97.4 | 93.7 | 99.4 | 95.2 | 92.6 | – | > 10 | > 10 | 3.4 | 2.5 | 0 | 0 | 103 | 111 | 97.5 | 94 | 75.7 | > 10 | 1.7 | – |
| Fc1ccc(Cn2c(NC3CCNCC3)nc3ccccc32)cc1 [tecastemizole] | 97.8 | 98.1 | 99 | 106 | 73.3 | 106 | 96.6 | 114 | 83.9 | 86.2 | 95 | 98 | 96.9 | 98.2 | 103 | 104 | 95.6 | 101 | 90 | 98.9 | > 10 | > 10 | > 10 | 0.8 | 1.4 | 0 | 0 | 90.7 | 99.2 | 107 | 99.5 | 102 | > 10 | 0 | – |
| COc1ccccc1OC(=O)c1ccccc1OC(C)=O [guacetisal] | – | – | – | – | – | 97.1 | 115 | 104 | 104 | 88.4 | 97.3 | 96.8 | 99.2 | 104 | 99 | 101 | 105 | 101 | 102 | 98.9 | > 10 | > 10 | > 10 | – | 0 | 0 | 0 | 105 | 90.9 | 108 | 102 | 97.4 | > 10 | 0 | – |
| Cc1c(C(=O)NCCCO)cnn1-c1nc(-c2cccc(C(F)(F)F)c2)cs1 | 93.5 | 91.4 | 96.1 | 102 | 67.1 | 99.3 | 91.1 | 96 | 106 | 52.9 | 101 | 103 | 93.3 | 98.1 | 83.9 | 98.1 | 95.9 | 102 | 97.7 | 90.3 | – | > 10 | > 10 | 1.4 | 2.1 | 0.5 | 0 | 107 | 102 | 112 | 104 | 94.3 | > 10 | 0 | – |
| Cc1c2oc3c(C)ccc(C(=O)N[C@@H]4C(=O)N[C@H](C(C)C)C(=O)N5CCC[C@H]5C(=O)N(C)CC(=O)N(C)[C@@H](C(C)C)C(=O)O[C@@H]4C)c3nc-2c(C(=O)N[C@@H]2C(=O)N[C@H](C(C)C)C(=O)N3CCC[C@H]3C(=O)N(C)CC(=O)N(C)[C@@H](C(C)C)C(=O)O[C@@H]2C)c(N)c1=O [dactinomycin] | 108 | 83.7 | 54.8 | 63.4 | 57.4 | 99 | 42.5 | 15.8 | 4.4 | 4.1 | 98.8 | 74.2 | 34.2 | 1.1 | 1.3 | 101 | 104 | 91.9 | 3.5 | 8.7 | 0.0079 | 0.0387 | 0.248 | 16.4 | 35.8 | 27.7 | 18.7 | 99.5 | 75 | 41 | 29.7 | 37.4 | 0.0187 | 22.9 | – |
| O=C1N=C(NCc2cccs2)S/C1=C\c1ccc2ncccc2c1 [Ro-3306] | 89.1 | 105 | 97.2 | 100 | 74.2 | 93.2 | 77.7 | 90.2 | 62.2 | 51 | 97.9 | 98.5 | 97.1 | 98.3 | 81.1 | 97 | 97.4 | 98.5 | 93.8 | 80.9 | – | > 10 | > 10 | 1 | 9.2 | 0.7 | 1.1 | 101 | 113 | 94 | 103 | 104 | > 10 | 0 | – |
| Cc1c2oc3c(C)ccc(C(=O)N[C@@H]4C(=O)N[C@@H](C(C)C)C(=O)N5CCC[C@H]5C(=O)N(C)CC(=O)N(C)[C@@H](C(C)C)C(=O)O[C@@H]4C)c3nc-2c(C(=O)N[C@@H]2C(=O)N[C@@H](C(C)C)C(=O)N3CCC[C@H]3C(=O)N(C)CC(=O)N(C)[C@@H](C(C)C)C(=O)O[C@@H]2C)c(N)c1=O [actinomycin-d] | 95.6 | 77.5 | 58.6 | 61 | 65.9 | 113 | 41.4 | 15.9 | 3.1 | 5.1 | 105 | 65.9 | 31.5 | 0.7 | 1 | 101 | 102 | 79.5 | 6.9 | 7.9 | 0.0085 | 0.0296 | 0.166 | 15.2 | 36.5 | 29.2 | 20.1 | 102 | 71.4 | 31.7 | 24.5 | 36.7 | 0.0152 | 25.9 | – |
| O=NN(CCCl)C(=O)NC1CCCCC1 [lomustine] | 89.7 | 78.5 | 101 | 93.2 | 59 | 102 | 95 | 99.2 | 104 | 98.7 | 98.5 | 97.1 | 97.5 | 102 | 94 | 97.9 | 99.1 | 99.6 | 92.4 | 94.6 | > 10 | > 10 | > 10 | 3.2 | 0 | 0 | 0 | 87.1 | 102 | 88.9 | 104 | 96.1 | > 10 | 0 | – |
| CC1(C)CC(Oc2ccc(-c3ccc(-c4cn[nH]c4)cc3O)nn2)CC(C)(C)N1 [LMI070] | 95.1 | 108 | 106 | 94.6 | 72.5 | 107 | 104 | 110 | 51.8 | 12.4 | 96.4 | 102 | 103 | 93.5 | 6.6 | 101 | 102 | 104 | 48.5 | 5.1 | 0.926 | 2.6 | 0.935 | 2 | 10.7 | 6.2 | 11.5 | 96.7 | 97.1 | 92.7 | 74.5 | 85.4 | – | 2.9 | – |
| CN[C@@H](C)[C@H]1[C@H](O)C[C@@]2(C)[C@@H]3CC[C@H]4C(C)(C)[C@@H](NC)CC[C@@]45C[C@@]35CC[C@]12C [cyclovirobuxin-D] | 101 | 92.1 | 91.2 | 90.1 | 90.6 | 96.3 | 99.5 | 91.5 | 99 | 99.1 | 101 | 96.3 | 99.4 | 99.8 | 97.6 | – | – | – | – | – | > 10 | > 10 | – | 0 | 0 | 0 | – | 102 | 94.7 | 98.6 | 99.2 | 102 | > 10 | 0 | > 10 |
| Cc1ccc(S(=O)(=O)NCl)cc1 [chloramine-T] | 99.5 | 104 | 92.2 | 101 | 99.2 | 101 | 98.5 | 104 | 102 | 102 | 105 | 97.7 | 105 | 99.1 | 99.4 | – | – | – | – | – | > 10 | > 10 | – | 0 | 0 | 0 | – | 102 | 107 | 92.2 | 101 | 92.6 | > 10 | 0 | > 10 |
| CC(C)(C(=O)NCC(F)(F)C(F)(F)F)C(=O)N[C@@H]1C(=O)Nc2ccccc2-c2ccccc21 [RG4733] | 94.4 | 92.3 | 97.8 | 89.8 | 82.2 | 102 | 111 | 101 | 102 | 92.1 | 96.9 | 99.1 | 99.6 | 94.4 | 97.3 | – | – | – | – | – | > 10 | > 10 | – | 0.6 | 0 | 0 | – | 102 | 108 | 112 | 98.6 | 93.9 | > 10 | 0 | > 10 |
| CC(C)(O)c1coc(S(=O)(=O)NC(=O)Nc2c3c(cc4c2CCC4)CCC3)c1 [MCC950] | 106 | 96.1 | 102 | 96.9 | 104 | 97.9 | 95.9 | 102 | 113 | 105 | 104 | 103 | 105 | 97.7 | 102 | – | – | – | – | – | > 10 | > 10 | – | 0 | 0 | 0 | – | 120 | 105 | 100 | 103 | 99.3 | > 10 | 0 | > 10 |
